Results reported in patent publication US20260265689A1, “BIOHYBRID ROBOT INCLUDING RETINAL/BRAIN ORGANOID, MOTOR NERVE SPHEROID, AND MUSCLE BUNDLE, AND MANUFACTURING METHOD THEREFOR” (SOGANG UNIVERSITY RESEARCH & BUSINESS DEVELOPMENT FOUNDATION, priority 2023, published 2026).

How the values were obtained:
[1] = system: brain organoid of the versatile biohybrid robot; experiment: Movement of the versatile biohybrid robot in co-culture media; design: species or system human; details: brain organoid stimulated using glutamate; 0.27 cm/min before stimulation
brain organoids = experiment: Electrophysiological signal measurement of retinal/brain organoid conjugates using a multi-electrode array; type: cell-based, human; details: 100 μM glutamate mixed into the co-culture medium
Experimental: The formation of conjugates of brain organoids and retinal organoids in Examples 1-3 above was confirmed through signal measurement using a multi-electrode array. Retinal/brain organoids were placed on electrodes of the multi-electrode array for signal measurement, and then the generation of electrophysiological signals was measured while light was applied to the retinal organoids. In addition, glutamate was added as a neurotransmitter to the co-culture medium used in the multi-electrode array, and electrophysiological signals generated from brain organoids were measured.

N[C@@H](CCC(=O)O)C(=O)O [glutamate]
movement of the biohybrid robot after stimulation [1]: 0.52 cm/min | electrophysiological signals generated by stimulating brain organoids (brain organoids): transmitted to the brain organoids
